The values that follow come from patent US9650674B2, “Nucleic acid probes and methods of using the same” (Board of Trustees University of Arkansas, priority 2012, dated 2017).

Data set [1] can be described thus: Baseline fluorescence of hairpin DNA probes. The format is physicochemical. To be noted: correlated with length of protruded DNA end; FIG. 1B. From the text: It was impossible to determine if the background fluorescence was attributed to the probe or it originated from a partial degradation of the probe. Consequently, the NIRF probes were designed as hairpins to allow testing the integrity of DNA by its denaturing followed by reannealing. The use of hairpin also allows easy measurement of the maximum fluorescence of the probe. The distance between two fluorophores varied by changing of protruding DNA strand length from +0 (AB259.1 probe) to +5 (AB259.3 probe) or to +10 (AB259.5 probe) as shown in FIG. 1A. The baseline fluorescence of probe AB259.1 was 30% higher than negative control without a probe (FIG. 1B).
All cell-free experiments were performed using the Bio-Tek Synergy 5 fluorescent plate reader. Before experiments, optimal excitation and emission wavelengths were determined. For this, excitation and emission were scanned in the ranges of 600-680 nm and 690-705 nm, respectively. The optimal excitation/emission was determined to be 665/703 nm. All kinetic and endpoint measurements were done in a total volume of 100 μl at 37° C. Unless stated otherwise, DNA substrate was used in final concentration 0.5 μM reconstituted in endonuclease activity assay (EAA) buffer (2 mM CaCl2, 5 mM MgCl2, 10 mM Tris-HCl, pH 7.4) in a 96-well plate. After measurement of starting fluorescence, DNase I or tested material (diluted 1:20 urine or 1:100 serum) were added to the reconstituted probe, rapidly mixed and fluorescence was monitored for up to 60 min with 30-sec intervals. In some instances, EDTA (final concentration 200 μM) or NaOH (50 mM) was added to terminate the reaction. For the experiments that involved assessment of fluorescence after DNA denaturing, probes were tested in Cepheid real-time PCR system using Cy5 setting (Sunnyvale, Calif.).

In the next data set the test system is NRK-52E cells. Kind of data set: Intracellular endonuclease activity in cultured cells, time-lapse microscopy. The format is cell-based, rat. To be noted: AB259.3/Lipofectamine LTX complexes. The procedure: To test whether AB259.3 probe may be delivered intracellularly and thus be used as an indicator of endonuclease activity in live cells, NRK-52E cells were transfected with of AB259.3/Lipofectamine LTX complexes and imaged by time-lapse epifluorescence microscopy every 10 min for 8 hours. A 2.5-3 times increased fluorescence reached plateau in 1 hour after transfection and the cells retained fluorescent dye for the duration of experiment (FIG. 4A). To induce activity of endonucleases, cells were treated with cisplatin or camptothecin and imaged by time-lapse microscopy for Cy5.5 fluorescence. […] Therefore, it was concluded that AB259.3 can be delivered and used for intracellular monitoring of endonuclease activity in live cells. To further determine whether AB259.3 probe can be used in other cell lines, several of them were tested (FIG. 4D). […] It was then determined whether the probe without the loop would be consumed by NRK-52E cells equally to the original loop probe. […] Finally, PCR was used to determine whether the DNA part (as opposed to the fluorophores) of the probes enters the cells in vivo and in vitro.
Rat proximal tubular epithelial NRK-52E cells were used to test the ability of AB259.3 probe to measure endonuclease activity. The cells were seeded in a 24-well plate at 50,000 cells per well in complete DMEM medium supplemented with 10% fetal bovine serum. Cells were transfected with the AB259.3 probe using Lipofectamin LTX and then subjected to spinning disk confocal fluorescent time-lapse microscopy in 628/40-692/40 spectrum every 10 min for 8 hours using Olympus IX-81 image system equipped with Hamamatsu ORCA-ER camera and LiveCell microenvironmental control chamber (Pathology Devices Inc., Westminster, Md.). In separate experiment, cells were treated with either 25 μM cisplatin or 50 μM camptothecin for 8 hours, followed by 1-hour transfection with AB259.3 probe and 8-hour time-lapse imaging session with 10-min intervals using the same microscopy system.

Data set [2] relates to WT and DNase I KO mice. Kind of data set: Intravital imaging of endonuclease activity in kidneys.
Source text: At the next step, WT and DNase I KO mice were anesthetized and intravenously administered with 50 nmol/kg of AB259.3 probe followed by intravital imaging using Xenogen-IVIS.
To additionally confirm preferential accumulation and processing of AB259.3 probe in kidneys, separate set of mice was deeply anesthetized and subjected to abdominal incision and real-time intravital visualization of left kidney while performing intravenous injection of AB259.3 probe. […] For this, DNase I KO animals were subjected to open surgery that was used to administer 5 μl DNase I (0.1 mg/ml) to subcapsular space of upper ventral zone of left kidney. To control effect of DNase I, additional WT and DNase I KO mice were injected with same volume of the vehicle. Immediately after injection, mice were injected with 50 nmol/kg of AB259.3 probe intravenously and then imaged in a Xenogen-IVIS.
Male DNase I KO mice and their WT counterparts at the age 8-10 weeks were used for all experiments. All procedures with mice were performed under general anesthesia with 50 mg/kg ketamine. For subcutaneous administration, mice were injected with 10 μl of 0.1 μM AB259.3 in the dorsal subcutaneous site. For systemic visualization, AB259.3 was injected intravenously at 50 nmol/kg in tail vein.
Imaging of live and euthanized mice or their isolated organs were performed using Xenogen IVIS Image System 200 (Caliper Life Sciences, Hopkinton, Mass.) equipped with Living Image® Software.
The subject of data set [3] is WT and DNase I KO mice. Kind of data set: Intravital assessment in other organs (bilateral kidney ligation or cationic liposomes). To be noted: imaging 3 hours after injection; FIGS. 10A and 10B.
Procedure: To check an ability of probe to measure endonuclease activity on other organs, the renal distribution of AB259.3 probe was challenged by two complementary approaches. First group of mice was subjected to bilateral kidney ligation followed by intravital administration of AB259.3 probe and imaging in 3 hours after injection. […] Another group of mice was injected with AB259.3 probe packed in cationic liposomes in attempt to make probe delivery bioavailable to all organs and tissues and less specific to kidneys.
Male DNase I KO mice and their WT counterparts at the age 8-10 weeks were used for all experiments. All procedures with mice were performed under general anesthesia with 50 mg/kg ketamine. For subcutaneous administration, mice were injected with 10 μl of 0.1 μM AB259.3 in the dorsal subcutaneous site. For systemic visualization, AB259.3 was injected intravenously at 50 nmol/kg in tail vein. […] Bilateral kidney ligation was performed on anesthetized DNase I KO or WT mice. Renal pedicles were surgically ligated using 4.0 silk sutures. […]
Imaging of live and euthanized mice or their isolated organs were performed using Xenogen IVIS Image System 200 (Caliper Life Sciences, Hopkinton, Mass.) equipped with Living Image® Software. […] Quantification of the manually designated areas was performed based on average radiant efficiency with the fixed min-max dynamic range.

{Cy5.5} = Cy5.5 cyanine dye label

Regarding “[Cy5.5]AACACTCCGATGAGTGTAGAATGT[Cy5.5] (DNA, 5' {Cy5.5}, 3' {Cy5.5}, backbone not given here) [AB259.3]”, the “baseline fluorescence (in words)” value in data set [1] is on record as “much higher levels of the baseline fluorescence”. Further, the “time to plateau of fluorescence after transfection” value in the data set with NRK-52E cells was 1 h. The “increase of fluorescence in cells after transfection” value in the data set on NRK-52E cells (FIG. 4A) is recorded as 2.5-3 times. In the data set with WT and DNase I KO mice [2] (50 nmol/kg intravenous, FIGS. 7A and 7B), the “time to plateau of fluorescence in kidneys, intravital imaging” value was 10 min. Besides, the “retention of fluorescence by kidneys” value in the data set on WT and DNase I KO mice [2] (50 nmol/kg intravenous, FIGS. 7C and 7D) was “at least 5 hours”. In addition, the “time to plateau of Cy5.5 fluorescence in exposed left kidney, real-time” value in the data set on WT and DNase I KO mice [2] (abdominal incision, intravenous injection, FIG. 7E) worked out at 10 min. The “probe accumulation after bilateral kidney ligation” value in the data set on WT and DNase I KO mice [3] is “accumulation in kidneys was completely abolished”.
